Source: patent US20220031680A1, “Donecopride As Neuroprotective Agent In the Treatment of Neurodegenerative Diseases” (priority 2018, published 2022)

Legend:
[1] = tested on: rat primary hippocampal neurons injured with Aβ 1-42; test: Survival and neurite network of MAP-2 neurons in primary hippocampal neurons injured with Aβ1-42; format: cell-based
Experimental: Rat hippocampal neurons were cultured as described by Callizot et al. (2013) J. Neurosci. Res. 91706-716. Pregnant female rats of 17 days gestation (Rats Wistar; Janvier Labs France) were killed using a deep anesthesia with CO2 chamber followed by a cervical dislocation. Then, fetuses were removed from the uterus and immediately placed in ice-cold L15 Leibovitz medium with a 2% penicillin (10,000 U/ml) and streptomycin (10 mg/ml) solution (PS) and 1% bovine serum albumin (BSA). Hippocampal neurons were treated for 20 min at 37° C. with a trypsin-EDTA solution at a final concentration of 0.05% trypsin and 0.02% EDTA. The dissociation was stopped by adding Dulbecco's modified Eagle's medium (DMEM) with 4.5 g/l of glucose, containing DNAse I grade II (final concentration 0.5 mg/ml) and 10% fetal calf serum (FCS). Cells were mechanically dissociated by three forced passages through the tip of a 10-ml pipette and then centrifuged at 515×g for 10 min at 4° C. The supernatant was discarded, and the pellet was resuspended in a defined culture medium consisting of Neurobasal medium with a 2% solution of B27 supplement, 2 mmol/l of L-glutamine, 2% of PS solution, and 10 ng/ml of brain-derived neurotrophic factor (BDNF). Viable cells were counted in a Neubauer cytometer, using the trypan blue exclusion test. Cells were seeded at a density of 20,000 per well in 96-well plates precoated with poly-L-lysine and cultured at 37° C. in an air (95%)-CO2 (5%) incubator. The medium was changed every 2 days.
(§1) The hippocampal neurons were exposed with Aβ solutions (see below) after 17 days of culture. The Aβ1-42 preparation was done following the procedure described by Callizot et al. (2013) J. Neurosci. Res. 91706-716. Briefly, Aβ1-42 peptide was dissolved in the defined culture medium mentioned above, at an initial concentration of 40 μM. This solution was gently agitated for 3 days at 37° C. in the dark and immediately used after being properly diluted in culture medium to the concentrations used (20 μM (plate 1) or 2.5 μM (plate 2) corresponding to 2 μM or 0.25 μM of oligomers (AβO) respectively).
(§2) Donecopride fumarate was solved in culture medium and preincubated 1 h before Aβ application. Aβ1-42 preparation was added to a final concentration of 20 or 2.5 μM (=2 μM or 0.25 μM of AβO, evaluated by automatic Western Blot) diluted in control medium in presence of Donecopride.
Donecopride fumarate (Donecopride) was tested on one culture in a 96 well plate (6 wells per conditions). The compound was preincubated one hour before Aβ application. The following conditions were assessed:
(§3) 24 hours after intoxication, the hippocampal neurons were fixed by a cold solution of ethanol (95%) and acetic acid (5%) for 5 min at −20° C. After permeabilization with 0.1% of saponin, cells were incubated for 2 h with:
a) chicken polyclonal antibody anti microtubule-associated-protein 2 (MAP-2), diluted at 1/1000 in PBS containing 1% fetal calf serum and 0.1% of saponin (this antibody allows the specific staining of neuronal cell bodies and neurites; and allow the study of neuronal cell death and neurite network).
(§4) For each condition, 30 pictures (representative of the whole well area) per well were taken using ImageXpress (Molecular Devices) at 20× magnification. All images were taken with the same acquisition parameters. Analyses were performed automatically by using Custom Module Editor (Molecular Devices).
(§5) The following endpoints were assessed: • Total number of neurons (neuron survival, number of MAP-2 positive neurons) • Neurite network (in μm of MAP-2 positive neurons) • area of tau in neurons (μm^2, overlapping with MAP-2 positive neurons).
All values are expressed as mean+/−SEM. Statistical analysis was performed by one-way ANOVA, followed by PLSD Fisher's test, p<0.05 were considered significant.
Rat hippocampal neurons were cultured as described by Callizot et al. (2013) J. Neurosci. Res. 91:706-716. […]

Tau (AT100) = test: Phosphorylation of Tau (AT100) in MAP-2 hippocampal neurons injured with Aβ1-42; format: cell-based, rat; conditions: Aβ1-42 injured hippocampal neurons; for effect on Tau hyperphosphorylation: Example 4
Experimental: as §1, §2, §3
b) mouse monoclonal antibody anti-phospho Tau (AT100) at dilution of 1/400 in PBS containing 1% fetal calf serum and 0.1% of saponin.
as §4, §5
(§6) Injury: The hippocampal neurons were exposed with Aβ solutions (see below) after 17 days of culture. The Aβ1-42 preparation was done following the procedure described by Callizot et al. (2013) J. Neurosci. Res. 91:706-716. The batch number of the Aβ1-42 used in this study contains 10% of oligomers (quantification by WB as performed in Combes et al. (2015) J. Neurosci. Res. 93:633-643). Briefly, Aβ1-42 peptide was dissolved in the defined culture medium mentioned above, at an initial concentration of 40 μmol/1. This solution was gently agitated for 3 days at 37° C. in the dark and immediately used after being properly diluted in culture medium to the concentrations used (20 μmol/l or 2.5 μmol/l corresponding to 2 μmol/l or 0.25 μmol/l of oligomers (AβO) respectively). Aβ1-42 preparation was added to a final concentration of 20 or 2.5 μmol/l (respectively 2 μmol/l or 0.25 μmol/l of AβO, determined by automatic WB) diluted in control medium in presence of the compounds.
Immunostaining: MAP-2/AT100—After fixation and permeabilization, cells were incubated for 2 hours with: • a chicken polyclonal antibody anti microtubule-associated-protein 2 (MAP-2) at dilution of 1/1000 in PBS containing 1% fetal calf serum and 0.1% saponin (this antibody stains specifically cell bodies and neurites, allowing study of neuronal cell death and neurite network); and • a mouse monoclonal antibody anti-phospho Tau (AT100) at dilution of 1/100 in PBS containing 1% fetal calf serum and 0.1% saponin.
For each condition, 30 pictures (representative of the whole well area) per well were taken using ImageXpress® (Molecular Devices) with 20× magnification. All images were generated using the same acquisition parameters. From images, analyses were directly and automatically performed by Custom Module Editor® (Molecular Devices). The following read-outs were investigated: • Total number of neurons (neuron survival, number of MAP-2 positive neurons) • Neurite network (in μm of MAP-2 positive neurons) • Area of AT100 (μm^2, overlapping with MAP-2 positive neurons).

[2] = tested on: rat primary hippocampal neurons injured with Aβ 1-42; test: Number of synapses (PSD95/SYN overlap) in primary hippocampal neurons injured with Aβ1-42; format: cell-based
Experimental: as §1, §2, §3
a) mouse monoclonal antibody anti post synaptic density 95 kDa (PSD95) at a dilution of 1/100 in PBS containing 1% fetal calf serum and 0.1% of saponin.
b) Rabbit polyclonal antibody anti-synaptophysin (SYN) at the dilution of 1/100 in PBS containing 1% fetal calf serum and 0.1% of saponin.
For each condition, 40 pictures per well were taken using ImageXpress (Molecular Devices) with 40× magnification. All images were taken with the same acquisition parameters.
Synapses evaluation was performed automatically by using Custom module editor (Molecular Devices).
The following endpoints were assessed: • Total number of synapses (overlapping between PSD95/SYN).
To assess the formation of synapses, the distribution of PSD-95, a post-synaptic marker, and synaptophysin, a pre-synaptic marker, was studied. A structure positive for both PD-95 and synaptophysin staining was considered as a synapse.
as §6
Immunostaining: PSD95 and SYN—After fixation and permeabilization, cells were incubated for 2 hours with: • mouse monoclonal antibody anti post synaptic density 95 kDa (PSD95) at dilution of 1/200 in PBS containing 1% fetal calf serum and 0.1% saponin; • rabbit polyclonal antibody anti-synaptophysin (SYN) at the dilution of 1/100 in PBS containing 1% fetal calf serum and 0.1% saponin.
For each condition, 40 pictures per well were taken using ImageXpress (Molecular Devices) with 40× magnification. All images were taken with the same conditions. Synapses evaluation were performed automatically by using Custom Module Editor® (Molecular Devices). The following endpoints were assessed: • Number of synapses (overlapping between PSD95/SYN)

[3] = Aβ1-42 injured hippocampal neurons, Example 4

Row | SMILES | neuroprotective effect (survival, neurite and synaptic network) [1, 3] | effect on Tau hyperphosphorylation (Tau (AT100)) | doses with neuroprotective effect on survival ([1]; Aβ1-42 injured hippocampal neurons (FIG. 5A)) [nM] | neurite length normalized by number of neurons (neuritic growth) ([1]; Aβ1-42 injured hippocampal neurons (FIG. 5C)) | effect on neurite network [1, 3] | concentration up to which active (survival and neurite network) ([1]; Aβ1-42 injured hippocampal neurons, Example 5 (FIG. 9A,B,C)) [µM] | concentration with significant reduction of Tau hyperphosphorylation (Tau (AT100); Example 5 (FIG. 9D)) [pM] | doses increasing the number of synapses ([2]; Aβ1-42 injured hippocampal neurons (FIG. 6)) [nM] | concentration with neuroprotective effect on synapses ([2]; Aβ1-42 injured hippocampal neurons, Example 5 (FIG. 10)) [pM]
1 | COc1cc(N)c(Cl)cc1C(=O)CCC1CCN(CC2CCNCC2)CC1 [MR31176] | neuroprotective effect at high concentrations | significant effect on Tau hyperphosphorylation was also observed at high concentration | – | – | – | – | – | – | –
2 | COc1cc(N)c(Cl)cc1C(=O)CCC1CCN(CC2CCCCCC2)CC1 [MR31192] | very strong neuroprotective effect at very low doses | important effect | 1 to 5 | neurotrophic effect | very large effect was also observed on neurite network at every tested dose | ≤ 500 | 100 | 1 to 5 | 500
